Patent US8815872B2, “Macrocyclics pyrimidines as aurora kinase inhibitors” (Merck Patent GmbH, priority 2008, dated 2014)

Columns and labels:
Type in all cases: biochemical
SAPK2-alpha = target: T1, SAPK2-alpha (Homo sapiens, UniProt Q16539); assay: Other kinases, inhibition at 1 μM (Table 3)
T1 construct: purchased Caliper Life Sciences
In short: (§1)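 Compound inhibition at one concentration was assessed by monitoring peptide phosphorylation via charge-based separation of fluorescent substrate and product. Incubation lasted 90 min at 25 °C before EDTA stop. Values are percent inhibition relative to no-inhibitor and no-ATP wells.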

Pim-3 = target: T2, Pim-3 (Homo sapiens, UniProt Q86V86); assay: Other kinases, inhibition at 1 μM (Table 3)
T2 construct: purchased Caliper Life Sciences
In short: as §1

PIM-2 = target: T3, PIM-2 (Homo sapiens, UniProt Q9P1W9); assay: Other kinases, inhibition at 1 μM (Table 3)
T3 construct: purchased Caliper Life Sciences
In short: as §1

PAK6 = target: T4, PAK6 (Homo sapiens, UniProt Q9NQU5); assay: Other kinases, inhibition at 1 μM (Table 3)
T4 construct: purchased Caliper Life Sciences
In short: as §1

MELK = target: T5, MELK (Homo sapiens, UniProt Q14680); assay: Other kinases, inhibition at 1 μM (Table 3)
T5 construct: purchased Caliper Life Sciences
In short: as §1

PRAK = target: T6, PRAK (Homo sapiens, UniProt Q8IW41); assay: Other kinases, inhibition at 1 μM (Table 3)
T6 construct: purchased Caliper Life Sciences
In short: as §1

SAPK4 = target: T7, SAPK4 (Homo sapiens, UniProt O15264); assay: Other kinases, inhibition at 1 μM (Table 3)
T7 construct: purchased Caliper Life Sciences
In short: as §1

CAMKI = target: T8, CAMKI (Homo sapiens, UniProt Q14012); assay: Other kinases, inhibition at 1 μM (Table 3)
T8 construct: purchased Caliper Life Sciences
In short: as §1

IKK-beta = target: T9, IKK-beta (Homo sapiens, UniProt O14920); assay: Other kinases, inhibition at 1 μM (Table 3)
T9 construct: purchased Caliper Life Sciences
In short: as §1

IR = target: T10, IR (Homo sapiens, UniProt P06213); assay: Other kinases, inhibition at 1 μM (Table 3)
T10 construct: purchased Caliper Life Sciences
In short: as §1

SRPK1 = target: T11, SRPK1 (Homo sapiens, UniProt Q96SB4); assay: Other kinases, inhibition at 1 μM (Table 3)
T11 construct: purchased Caliper Life Sciences
In short: as §1

MST4 = target: T12, MST4 (Homo sapiens, UniProt Q9P289); assay: Other kinases, inhibition at 1 μM (Table 3)
T12 construct: purchased Caliper Life Sciences
In short: as §1

SAPK2-beta = target: T13, SAPK2-beta (Homo sapiens, UniProt Q15759); assay: Other kinases, inhibition at 1 μM (Table 3)
T13 construct: purchased Caliper Life Sciences
In short: as §1

SRC = target: T14, SRC (Homo sapiens, UniProt P12931); assay: Other kinases, inhibition at 1 μM (Table 3)
T14 construct: purchased Caliper Life Sciences
In short: as §1

MAPKAP-K2 = target: T15, MAPKAP-K2 (Homo sapiens, UniProt P49137); assay: Other kinases, inhibition at 1 μM (Table 3)
T15 construct: purchased Caliper Life Sciences
In short: as §1

PAK4 = target: T16, PAK4 (Homo sapiens, UniProt O96013); assay: Other kinases, inhibition at 1 μM (Table 3)
T16 construct: purchased Caliper Life Sciences
In short: as §1

ROCK-II = target: T17, ROCK-II (Homo sapiens, UniProt O75116); assay: Other kinases, inhibition at 1 μM (Table 3)
T17 construct: purchased Caliper Life Sciences
In short: as §1

PKC-zeta = target: T18, PKC-zeta (Homo sapiens, UniProt Q05513); assay: Other kinases, inhibition at 1 μM (Table 3)
T18 construct: purchased Caliper Life Sciences
In short: as §1

PAK5 = target: T19, PAK5 (Homo sapiens, UniProt Q9P286); assay: Other kinases, inhibition at 1 μM (Table 3)
T19 construct: purchased Caliper Life Sciences
In short: as §1

PBK = target: T20, PBK (Homo sapiens, UniProt Q96KB5); assay: Other kinases, inhibition at 1 μM (Table 3)
T20 construct: purchased Caliper Life Sciences
In short: as §1

AMPK = assay: Other kinases, inhibition at 1 μM (Table 3)
In short: as §1

GSK3-beta = target: T21, GSK3-beta (Homo sapiens, UniProt P49841); assay: Other kinases, inhibition at 1 μM (Table 3)
T21 construct: purchased Caliper Life Sciences
In short: as §1

MNK-1 = target: T22, MNK-1 (Homo sapiens, UniProt Q9BUB5); assay: Other kinases, inhibition at 1 μM (Table 3)
T22 construct: purchased Caliper Life Sciences
In short: as §1

CK2 = assay: Other kinases, inhibition at 1 μM (Table 3)
In short: as §1

MARK3 = target: T23, MARK3 (Homo sapiens, UniProt P27448); assay: Other kinases, inhibition at 1 μM (Table 3)
T23 construct: purchased Caliper Life Sciences
In short: as §1

CHK1 = target: T24, CHK1 (Homo sapiens, UniProt O14757); assay: Other kinases, inhibition at 1 μM (Table 3)
T24 construct: purchased Caliper Life Sciences
In short: as §1

IRR = target: T25, IRR (Homo sapiens, UniProt P14616); assay: Other kinases, inhibition at 1 μM (Table 3)
T25 construct: purchased Caliper Life Sciences
In short: as §1

MST2 = target: T26, MST2 (Homo sapiens, UniProt Q13188); assay: Other kinases, inhibition at 1 μM (Table 3)
T26 construct: purchased Caliper Life Sciences
In short: as §1

PDK1 = target: T27, PDK1 (Homo sapiens, UniProt O15530); assay: Other kinases, inhibition at 1 μM (Table 3)
T27 construct: purchased Caliper Life Sciences
In short: as §1

PKB-alpha = target: T28, PKB-alpha (Homo sapiens, UniProt P31749); assay: Other kinases, inhibition at 1 μM (Table 3)
T28 construct: purchased Caliper Life Sciences
In short: as §1

CSK = target: T29, CSK (Homo sapiens, UniProt P41240); assay: Other kinases, inhibition at 1 μM (Table 3)
T29 construct: purchased Caliper Life Sciences
In short: as §1

IKK-epsilon = target: T30, IKK-epsilon (Homo sapiens, UniProt Q14164); assay: Other kinases, inhibition at 1 μM (Table 3)
T30 construct: purchased Caliper Life Sciences
In short: as §1

Ret(h) = target: T31, Ret(h) (Homo sapiens, UniProt P07949); assay: Inhibition of other kinases IC50 (Table 2)
T31 construct: purchased Caliper Life Sciences
Experimental: (§2) The Aurora and other kinase assays described here were performed on two Caliper Life Sciences systems, the LC3000 and the Desktop Profiler. These provide data on enzyme activity via measurement of the relative amounts of phosphorylated or unphosphorylated fluorescently labelled substrate peptide at the end of an enzymatic reaction. These different states of peptide are resolved by applying a potential difference across the sample. The presence of a charged phosphate group on the product (as opposed to the substrate) causes a different peptide mobility between the two peptides. This is visualized by excitation of a fluorescent label on the substrate and product peptides and represented as peaks within the analysis software.

Tie2(h) = target: T32, Tie2(h) (Homo sapiens, UniProt Q02763); assay: Inhibition of other kinases IC50 (Table 2)
T32 construct: purchased Caliper Life Sciences
Experimental: as §2

T27 sequence (O15530 whole entry): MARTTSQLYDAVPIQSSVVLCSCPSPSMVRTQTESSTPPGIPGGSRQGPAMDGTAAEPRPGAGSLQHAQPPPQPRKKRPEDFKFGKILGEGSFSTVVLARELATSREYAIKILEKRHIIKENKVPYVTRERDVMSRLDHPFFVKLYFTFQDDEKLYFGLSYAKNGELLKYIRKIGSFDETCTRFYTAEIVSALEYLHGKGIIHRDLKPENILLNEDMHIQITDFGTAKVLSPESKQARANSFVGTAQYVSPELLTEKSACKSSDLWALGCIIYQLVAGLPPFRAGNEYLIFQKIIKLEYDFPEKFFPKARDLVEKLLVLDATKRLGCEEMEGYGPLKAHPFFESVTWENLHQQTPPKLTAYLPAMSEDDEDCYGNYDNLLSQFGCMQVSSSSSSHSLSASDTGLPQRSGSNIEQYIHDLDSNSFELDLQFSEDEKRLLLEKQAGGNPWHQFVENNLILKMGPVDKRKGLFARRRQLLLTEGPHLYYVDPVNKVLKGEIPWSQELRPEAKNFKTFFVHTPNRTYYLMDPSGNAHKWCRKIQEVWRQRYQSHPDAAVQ
T29 sequence (P41240 whole entry, species assumed): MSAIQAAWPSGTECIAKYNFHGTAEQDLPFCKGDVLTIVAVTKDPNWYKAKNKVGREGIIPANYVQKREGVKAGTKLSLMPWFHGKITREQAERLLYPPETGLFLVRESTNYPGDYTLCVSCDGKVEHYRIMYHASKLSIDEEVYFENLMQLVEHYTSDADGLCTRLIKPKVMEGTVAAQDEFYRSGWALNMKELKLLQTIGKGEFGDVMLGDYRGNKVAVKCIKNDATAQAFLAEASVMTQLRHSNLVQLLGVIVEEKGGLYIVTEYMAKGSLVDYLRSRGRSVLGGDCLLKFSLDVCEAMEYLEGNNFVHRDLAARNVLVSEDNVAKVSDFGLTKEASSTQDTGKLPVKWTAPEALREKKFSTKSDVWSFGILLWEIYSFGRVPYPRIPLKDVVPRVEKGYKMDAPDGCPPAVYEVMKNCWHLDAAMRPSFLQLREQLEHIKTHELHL
T32 sequence (Q02763 23-1124): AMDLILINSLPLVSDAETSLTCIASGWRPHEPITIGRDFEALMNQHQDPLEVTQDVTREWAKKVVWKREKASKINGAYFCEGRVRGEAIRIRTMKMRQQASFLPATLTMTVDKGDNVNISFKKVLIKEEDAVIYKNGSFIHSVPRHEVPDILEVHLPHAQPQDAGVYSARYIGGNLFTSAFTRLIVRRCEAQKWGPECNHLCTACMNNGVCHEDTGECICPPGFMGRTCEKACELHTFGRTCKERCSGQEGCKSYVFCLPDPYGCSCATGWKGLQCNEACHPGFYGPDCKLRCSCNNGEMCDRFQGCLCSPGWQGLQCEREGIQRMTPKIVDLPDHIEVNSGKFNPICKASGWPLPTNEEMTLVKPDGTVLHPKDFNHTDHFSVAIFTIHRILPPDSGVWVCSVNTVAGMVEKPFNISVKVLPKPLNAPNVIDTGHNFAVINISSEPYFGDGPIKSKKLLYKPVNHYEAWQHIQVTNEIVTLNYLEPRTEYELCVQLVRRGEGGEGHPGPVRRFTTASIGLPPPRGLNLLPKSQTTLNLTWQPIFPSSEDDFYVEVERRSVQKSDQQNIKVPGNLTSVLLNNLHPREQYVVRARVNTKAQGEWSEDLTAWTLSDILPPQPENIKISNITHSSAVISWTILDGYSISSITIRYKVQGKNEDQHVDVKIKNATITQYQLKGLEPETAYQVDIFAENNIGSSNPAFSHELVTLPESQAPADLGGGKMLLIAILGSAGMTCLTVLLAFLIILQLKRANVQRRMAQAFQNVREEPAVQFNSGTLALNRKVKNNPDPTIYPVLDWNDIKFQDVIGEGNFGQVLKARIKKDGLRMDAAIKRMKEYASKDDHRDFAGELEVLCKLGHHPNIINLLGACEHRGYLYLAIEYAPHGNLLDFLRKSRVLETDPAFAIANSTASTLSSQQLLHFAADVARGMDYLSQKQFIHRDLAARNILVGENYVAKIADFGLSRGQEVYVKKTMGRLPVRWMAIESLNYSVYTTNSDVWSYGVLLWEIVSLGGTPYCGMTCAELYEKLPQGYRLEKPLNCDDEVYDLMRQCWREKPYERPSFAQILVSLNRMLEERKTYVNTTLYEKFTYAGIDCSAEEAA
T6 sequence (Q8IW41 whole entry, species assumed): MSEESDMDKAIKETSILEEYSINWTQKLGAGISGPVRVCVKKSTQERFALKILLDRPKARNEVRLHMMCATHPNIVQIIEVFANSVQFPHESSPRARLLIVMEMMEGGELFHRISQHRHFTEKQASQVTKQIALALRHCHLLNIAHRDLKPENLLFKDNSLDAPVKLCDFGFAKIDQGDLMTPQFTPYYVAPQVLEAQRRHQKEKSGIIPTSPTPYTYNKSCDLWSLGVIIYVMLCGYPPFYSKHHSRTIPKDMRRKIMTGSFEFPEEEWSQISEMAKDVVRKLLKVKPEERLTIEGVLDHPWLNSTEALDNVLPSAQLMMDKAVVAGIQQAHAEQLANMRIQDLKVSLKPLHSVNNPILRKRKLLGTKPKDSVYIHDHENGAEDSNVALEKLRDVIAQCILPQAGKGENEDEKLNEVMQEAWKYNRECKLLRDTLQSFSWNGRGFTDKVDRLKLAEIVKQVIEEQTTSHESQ
T20 sequence (Q96KB5 whole entry, species assumed): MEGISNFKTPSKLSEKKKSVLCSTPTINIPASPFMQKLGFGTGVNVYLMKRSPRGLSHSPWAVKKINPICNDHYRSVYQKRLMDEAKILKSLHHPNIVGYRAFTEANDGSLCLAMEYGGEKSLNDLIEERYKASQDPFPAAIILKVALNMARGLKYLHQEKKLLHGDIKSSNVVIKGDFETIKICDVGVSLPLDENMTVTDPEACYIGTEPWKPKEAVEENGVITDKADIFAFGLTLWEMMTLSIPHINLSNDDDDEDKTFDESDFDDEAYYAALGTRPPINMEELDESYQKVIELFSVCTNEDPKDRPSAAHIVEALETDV
T23 sequence (P27448 whole entry, species assumed): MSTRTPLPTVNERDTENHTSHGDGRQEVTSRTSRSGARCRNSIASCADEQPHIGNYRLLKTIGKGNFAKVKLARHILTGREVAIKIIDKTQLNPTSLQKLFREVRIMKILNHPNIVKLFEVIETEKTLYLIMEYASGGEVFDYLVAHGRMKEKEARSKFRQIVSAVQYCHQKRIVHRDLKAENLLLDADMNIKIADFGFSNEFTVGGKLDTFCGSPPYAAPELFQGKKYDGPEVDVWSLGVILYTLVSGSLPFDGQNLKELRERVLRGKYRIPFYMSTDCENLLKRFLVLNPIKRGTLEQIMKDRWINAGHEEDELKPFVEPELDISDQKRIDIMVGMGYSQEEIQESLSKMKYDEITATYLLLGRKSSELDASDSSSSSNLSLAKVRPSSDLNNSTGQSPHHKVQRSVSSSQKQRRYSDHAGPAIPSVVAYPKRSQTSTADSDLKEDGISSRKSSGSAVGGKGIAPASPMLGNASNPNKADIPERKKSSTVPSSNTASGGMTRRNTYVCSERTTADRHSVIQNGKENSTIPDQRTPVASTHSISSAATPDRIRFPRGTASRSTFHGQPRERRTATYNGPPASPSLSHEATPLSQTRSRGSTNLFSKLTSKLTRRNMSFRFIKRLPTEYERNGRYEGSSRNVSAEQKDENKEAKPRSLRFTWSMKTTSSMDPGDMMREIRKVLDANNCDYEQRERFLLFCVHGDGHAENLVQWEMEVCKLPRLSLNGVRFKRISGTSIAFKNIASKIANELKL
T17 sequence (O75116 whole entry, species assumed): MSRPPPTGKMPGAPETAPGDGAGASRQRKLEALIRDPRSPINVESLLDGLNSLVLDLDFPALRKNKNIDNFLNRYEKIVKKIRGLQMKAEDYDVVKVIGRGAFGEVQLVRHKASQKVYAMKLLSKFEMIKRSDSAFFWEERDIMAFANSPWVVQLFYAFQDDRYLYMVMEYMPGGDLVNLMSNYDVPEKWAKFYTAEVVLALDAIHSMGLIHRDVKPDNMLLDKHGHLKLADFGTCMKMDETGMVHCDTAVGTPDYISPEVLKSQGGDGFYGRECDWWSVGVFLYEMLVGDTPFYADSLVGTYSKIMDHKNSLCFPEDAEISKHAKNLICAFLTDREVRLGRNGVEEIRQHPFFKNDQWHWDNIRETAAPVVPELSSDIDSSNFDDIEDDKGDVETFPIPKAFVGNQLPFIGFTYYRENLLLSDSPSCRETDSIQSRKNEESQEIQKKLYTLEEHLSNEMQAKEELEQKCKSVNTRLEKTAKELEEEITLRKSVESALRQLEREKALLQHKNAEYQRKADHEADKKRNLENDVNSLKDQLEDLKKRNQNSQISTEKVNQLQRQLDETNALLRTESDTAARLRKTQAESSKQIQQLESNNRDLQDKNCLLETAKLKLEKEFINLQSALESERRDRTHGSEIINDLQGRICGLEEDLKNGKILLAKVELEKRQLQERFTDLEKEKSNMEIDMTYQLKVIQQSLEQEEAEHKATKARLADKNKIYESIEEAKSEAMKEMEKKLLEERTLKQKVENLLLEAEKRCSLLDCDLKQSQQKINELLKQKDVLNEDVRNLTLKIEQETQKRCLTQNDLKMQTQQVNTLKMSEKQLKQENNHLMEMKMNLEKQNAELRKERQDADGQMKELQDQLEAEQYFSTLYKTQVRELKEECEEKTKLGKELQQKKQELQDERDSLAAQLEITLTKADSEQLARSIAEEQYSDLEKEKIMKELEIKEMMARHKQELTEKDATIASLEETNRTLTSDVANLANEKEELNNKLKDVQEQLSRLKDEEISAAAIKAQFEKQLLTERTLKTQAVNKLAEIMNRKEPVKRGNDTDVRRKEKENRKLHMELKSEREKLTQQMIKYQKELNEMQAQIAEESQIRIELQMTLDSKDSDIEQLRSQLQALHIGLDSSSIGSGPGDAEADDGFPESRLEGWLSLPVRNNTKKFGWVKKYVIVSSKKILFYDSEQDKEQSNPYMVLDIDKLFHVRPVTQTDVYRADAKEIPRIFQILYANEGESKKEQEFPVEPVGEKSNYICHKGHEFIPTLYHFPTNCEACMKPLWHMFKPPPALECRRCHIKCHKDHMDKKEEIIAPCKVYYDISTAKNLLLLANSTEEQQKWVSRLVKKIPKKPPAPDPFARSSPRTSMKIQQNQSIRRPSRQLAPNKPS

SMILES	inhibition at 1 µM (SAPK2-alpha) [%]	% inhibition Pim-3 (Pim-3) [%]	% inhibition PIM-2 (PIM-2) [%]	% inhibition PAK6 (PAK6) [%]	% inhibition MELK (MELK) [%]	% inhibition PRAK (PRAK) [%]	inhibition at 1 µM (SAPK4) [%]	% inhibition CAMKI (CAMKI) [%]	inhibition at 1 µM (IKK-beta) [%]	inhibition at 1 µM (IR) [%]	inhibition at 1 µM (SRPK1) [%]	% inhibition MST4 (MST4) [%]	inhibition at 1 µM (SAPK2-beta) [%]	inhibition at 1 µM (SRC) [%]	% inhibition MAPKAP-K2 (MAPKAP-K2) [%]	% inhibition PAK4 (PAK4) [%]	inhibition at 1 µM (ROCK-II) [%]	% inhibition PKC-zeta (PKC-zeta) [%]	% inhibition PAK5 (PAK5) [%]	% inhibition PBK (PBK) [%]	other results
Fc1cnc2nc1NC1CCCC(C1)OC/C=C\COc1cccc(c1)N2 (single isomer, unassigned) [Example 33, (16Z)-6-fluoro-14,19-dioxa-2,4,8,26-tetraazatetracyclo[18.3.1.1˜3,7˜0.1˜9,13˜]hexacosa-1(24),3(26),4,6,16,20,22-heptaene]	76	84	85	90	101	80	79	93	78	67	83	89	83	58	100	81	79	104	92	89	% inhibition AMPK (AMPK): 76%; inhibition at 1 µM (GSK3-beta): 57%; % inhibition MNK-1 (MNK-1): 95%; % inhibition CK2 (CK2): 96%; % inhibition MARK3 (MARK3): 73%; % inhibition CHK1 (CHK1): 98%; inhibition at 1 µM (IRR): 69%; % inhibition MST2 (MST2): 61%; % inhibition PDK1 (PDK1): 91%; % inhibition PKB-alpha (PKB-alpha): 85%; inhibition at 1 µM (CSK): 86%; inhibition at 1 µM (IKK-epsilon): 91%
NC(=O)[C@H]1[C@H]2C[C@H]3[C@H]1Nc1nc(ncc1F)Nc1cccc(c1)NC(=O)CS[C@@H]3C2 [Example 27]	–	–	–	–	–	–	–	–	–	–	–	–	–	–	–	–	–	–	–	–	IC50 (Ret(h)): 1 to 100 nM; IC50 (Tie2(h)): 101 to 1000 nM
NC(=O)[C@H]1[C@H]2C[C@H]3[C@H]1Nc1nc(ncc1F)Nc1cccc(c1)CSS[C@@H]3C2 [Example 10]	89	63	70	81	36	84	44	73	82	37	65	59	81	14	88	38	75	99	72	99	% inhibition AMPK (AMPK): 38%; inhibition at 1 µM (GSK3-beta): 19%; % inhibition MNK-1 (MNK-1): 98%; % inhibition CK2 (CK2): 91%; % inhibition MARK3 (MARK3): 74%; % inhibition CHK1 (CHK1): 73%; inhibition at 1 µM (IRR): 72%; % inhibition MST2 (MST2): 8%; % inhibition PDK1 (PDK1): 73%; % inhibition PKB-alpha (PKB-alpha): 93%; inhibition at 1 µM (CSK): 56%; inhibition at 1 µM (IKK-epsilon): 75%
NC(=O)[C@H]1[C@H]2C[C@H]3[C@H]1Nc1nc(ncc1F)Nc1cccc(c1)OCCS[C@@H]3C2 [Example 20]	–	–	–	–	–	–	–	–	–	–	–	–	–	–	–	–	–	–	–	–	IC50 (Ret(h)): 101 to 1000 nM; IC50 (Tie2(h)): 101 to 1000 nM
